# Source: patent publication EP1466611A1, “Use of HCG derived peptides in the treatment of iatrogenic diseases” (Biotempt B.V., priority 2003, dated 2004)
# Ends that are not written are not given here.
# System: NF-kB
# Experiment: NF-kB translocation by EMSA on nuclear extracts of RAW 264.7 mouse macrophages, basal and LPS induced (second experiment)
# Format: cell-based
# Conditions: RAW264.7 cells, LPS in combination with peptide, 30 minutes of incubation, peptide 1 microgr/ml or 1 mg/ml
# Protocol: RAW 264.7 mouse macrophages were cultured in DMEM, containing 10% or 2% FBS, penicillin, streptomycin and glutamine, at 37 °C, 5% CO2. […] After 30 minutes of incubation plates were centrifuged and cells were collected for nuclear extracts. Nuclear extracts and EMSA were prepared according to Schreiber et al. Cells were collected in a tube and centrifuged for 5 minutes at 2000 rpm (rounds per minute) at 4°C (Universal 30 RF, Hettich Zentrifuges). The pellet was washed with ice-cold Tris buffered saline (TBS pH 7.4) and resuspended in 400 μl of a hypotonic buffer A (10 mM HEPES pH 7.9, 10 mM KCl, 0.1 mM EDTA, 0.1 mM EGTA, 1 mM DTT, 0.5 mM PMSF and protease inhibitor cocktail (Complete^TM Mini, Roche) and left on ice for 15 minutes. Twenty five micro litre 10% NP-40 was added and the sample was centrifuged (2 minutes, 4000 rpm, 4°C). The supernatant (cytoplasmic fraction) was collected and stored at -70°C. […] The samples were left to shake at 4°C for at least 60 minutes. Finally the samples were centrifuged and the supernatant (nucleic fraction) was stored at -70°C. Bradford reagent (Sigma) was used to determine the final protein concentration in the extracts. […] Hundred pico mol sense and antisense oligo were annealed and labelled with […] using T4 polynucleotide kinase according to the manufacture's instructions (Promega, Madison, WI). […]
substance,measurement,value
"circular LQGVLPALPQVVC (also: circular / cyclised, mode of ring closure not given here) [NFkappaB down-regulating peptide]",LPS induced translocation of NF-kB,inhibition
